# Earlier results, collected in paper PMC12018205, “Mutant protein chemical rescue: From mechanisms to therapeutics” (The Journal of Biological Chemistry, 2025).
# How the values were obtained:
# Q227L Gα (Gsα subunit) = conditions: substrate-assisted catalysis
# [1] = system: S-mandelate dehydrogenase R277G mutant; set-up: method as in PMID 10955993
# [2] = system: R359C GS (glutamine synthetase); set-up: method as in PMID 7912599; conditions: for rescue of kcat / reactivation of R359C mutant: covalent modification of Cys
# [3] = system: aspartate aminotransferase K258C mutant; set-up: method as in PMID 1907854; conditions: aminoethylation of K258C
# galactocerebrosidase = system: galactocerebrosidase; set-up: method as in PMID 24913062; conditions: Krabbe disease
# mutant p53 tumors = system: mutant p53 tumors; set-up: method as in PMID 10617466; conditions: mouse xenograft studies
# [4] = system: mutant α-galactosidase A (GalA); set-up: method as in PMID 9883849; conditions: prevents aggregation in the endoplasmic reticulum
# [5] = system: clostridial GDH D156S mutant
# [6] = system: rat pancreatic carboxypeptidase A R127A mutant; set-up: method as in PMID 1304353; conditions: up
# [7] = system: trehalose phosphorylase R507A mutant; set-up: method as in PMID 18205830; conditions: up
# [8] = system: rat pancreatic carboxypeptidase A R127M mutant; set-up: method as in PMID 1304353
# [9] = system: ornithine transcarbamylase R57G variant
# [10] = system: AS B (asparagine synthetase B) Arg325 to Ala mutant; set-up: method as in PMID 9139684; conditions: 50 mM rescue agent
# mutant forms of CFTR = system: mutant forms of CFTR; set-up: method as in PMID 19846789; conditions: some mutant forms; epithelial cell membranes
# [11] = system: N370S-mutant β-glucosidase; set-up: method as in PMID 12434014
# HDAC8 = system: HDAC8; set-up: method as in PMID 26463496; conditions: multiple forms
# [12] = system: pyruvate kinase C9S/C268S/K221C triple mutant; conditions: aminoethylation of K221C
# [13] = system: Lys80-mutant leucine dehydrogenase; conditions: One M; from 1.5% unrescued
# [14] = system: E361G-mutant β-galactosidase; conditions: E361G mutant rescued
# [15] = system: Y51A-mutant xylose reductase; conditions: NAD+-dependent oxidation of xylitol
# tripeptidyl peptidase I = system: tripeptidyl peptidase I; set-up: method as in PMID 20340139; conditions: one form
# I278T CBS = system: I278T CBS; set-up: method as in PMID 17540596
# [16] = system: rationally designed proteins and temperature-sensitive library mutants in yeast
# [17] = system: Paenibacillus sp. dextranase glutamate mutants; conditions: high concentration of 2.4 M
# H122G NDPK = system: H122G NDPK; set-up: method as in PMID 10200157
# [18] = system: SpyCas9 H840A and H840G mutants; set-up: method as in PMID 33428390; conditions: 100 mM; both H840 mutants
# subtilisin H64A mutant = system: subtilisin H64A mutant; set-up: method as in PMID 2059622; conditions: much lesser degree than His-containing substrate
# [19] = system: Csk, Src, and Abl kinases Arg to Ala mutants
# [20] = system: β-class carbonic anhydrase Asp34 to Ala mutant; set-up: method as in PMID 12107142; conditions: without affecting kcat/KM
# [21] = system: R388A v-Src in SYF MEF cells; conditions: live cells, FRET-based cell sensor
# [22] = system: cytomegalovirus protease assemblin His to Gly mutant; set-up: method as in PMID 16036911; conditions: in vitro and in mammalian cells
# [23] = system: β-glycosidase (β-gly) W33G mutant; set-up: method as in PMID 22655749
# Y319A TbtD = conditions: 10 mM
# [24] = system: Y14G-mutant ketosteroid isomerase; conditions: 2 mM
# [25] = system: mutant PAH (phenylalanine hydroxylase); conditions: PAH stabilization and enhancement of enzyme kinetics
compound,measurement,setting,value
"3,4-diamino-benzophenone phosphonoamidate-GTP [DABP-GTP]",GTPase activity rescue with GTP analog as substrate,Q227L Gα (Gsα subunit),nearly WT activity
"CN(C)C(=N)N [1,1-dimethylguanidine]",effectiveness as rescue agent,[1],not effective
Cn1ccnc1 [1-methylimidazole],effectiveness as rescue agent,[1],not effective
"N=C(N)CCl [2-CA, 2-chloroacetamidine]","kcat restored, % of the value of the WT enzyme",[2]; R359C GS after covalent modification of Cys,70%
NCCBr [2-bromoethylamine],"enzymatic activity restored, % of WT aspartate aminotransferase",[3],7%
NCCCBr [3-bromopropylamine],rescue of kcat / reactivation of R359C mutant,[2],could not reactivate
"O=c1c(-c2ccc(O)c(O)c2)coc2cc(O)ccc12 [3′,4′,7-trihydroxyisoflavone]",rescue of galactocerebrosidase,galactocerebrosidase,rescued
COc1ccc(/C=C/c2nc(NCCCN(C)C)c3ccccc3n2)cc1 [CP-31398],effect on tumors,mutant p53 tumors,shrunk tumors
"OC[C@H]1NC[C@H](O)[C@@H](O)[C@H]1O [DGJ, deoxygalactonojirimycin]",effect of binding on mutant GalA,[4],stabilize mutant GalA
"N=C(N)CSSCC(=N)N [DTBA, 2,2′-dithiobis(acetamidine)]",rescue of kcat / reactivation of R359C mutant,[2],hardly affected
"F [Fluoride, fluoride]","maximum extent of rescue, forward reaction, increase over baseline",[5],1000 fold
same,"maximum extent of rescue, reverse reaction, increase over baseline",[5],4 fold
same,EC50,"[5]; read-out: Kr, reverse reaction, reductive amination",40 mM
N=C(N)N [Guanidine],increase in kcat of the R127A mutant,[6],up to 100 fold
same,enhancement of enzymatic activity,[7],up to 50 fold
same,rescue of the R127M mutant,[8],rescued
Cl.N=C(N)N [Guanidinium hydrochloride],"rescued kcat, within % of the WT enzyme",[9]; R57G variant,≤ 10%
same,stimulation of kcat,[9]; R57G variant,2000 fold
same,EC50,"[9]; R57G variant, read-out: half-maximal rescue concentration (Kr)",22 mM
same,"specific activity restored, % of the WT enzyme",[10],~15%
CC(C)(C)c1cc(C(C)(C)C)c(NC(=O)c2c[nH]c3ccccc3c2=O)cc1O [Ivacaftor],effect on mutant CFTR,mutant forms of CFTR,enhances their presence and transport function
CCCCCCCCCN1C[C@H](O)[C@@H](O)[C@H](O)[C@H]1CO [N-(n-nonyl)deoxynojirimycin],effect on mutant β-glucosidase stability and trafficking to the lysosome,[11],shows promise in promoting the stability
O=C(NC(=S)Nc1ccccc1)c1ccccc1 [N-(phenylcarbamothioyl)-benzamide],rescue of HDAC8 mutants,HDAC8,partially or fully rescued
O=C(NCCI)C(F)(F)F [N-[2-iodoethyl]trifluoroacetamide],"activity rescued, % of the WT pyruvate kinase activity",[12],4.5%
CC(=O)O [acetate],enhancement of D189S trypsin activity,D189S trypsin,could enhance the activity
same,rescue for substrates bearing Arg at P1 versus Lys,D189S trypsin; D189S trypsin,10 fold
N [ammonia],"deamination activity restored, % of WT leucine dehydrogenase",[13],20%
N=C(N)NCCC[C@H](N)C(=O)O [arginine],restoration of R57G variant activity,[9],not
[N-]=[N+]=[N-] [azide],enhancement in transglycosylation activity over the WT enzyme,[14],177 fold
Br [bromide ion],rescue of Y51A-mutant xylose reductase,[15],partially rescued
C[S+](C)[O-] [dimethyl sulfoxide],rescue of tripeptidyl peptidase I,tripeptidyl peptidase I,partially rescued
same,rescue of I278T CBS by chemical chaperones,I278T CBS,partially rescued
same,extent of rescue in vivo,[16],weak
CCNC(=N)N [ethylguanidine],increase in kcat of the R127A mutant,[6],up to 100 fold
O=CO [formate],enhancement in transglycosylation activity over the WT enzyme,[14],177 fold
same,rescue of glutamate mutants,[17],effective
N=C(N)N [guanidinium],extent of rescue in vivo,[16],weak
c1c[nH]cn1 [imidazole],"rescue of kcat/KM,ATP",H122G NDPK; ATP,40 fold
same,"rescued kcat/KM,ATP, fold below that of the WT enzyme",H122G NDPK; ATP,50 fold
same,"kcat/KM,ATPγS, fold higher than the unrescued condition",H122G NDPK; ATPγS,100 fold
same,"rescued kcat/KM,ATPγS, fold below WT",H122G NDPK; ATPγS,2 fold
same,rescue of in vitro nuclease activity,[18],substantially rescued
same,restoration of catalytic activity,subtilisin H64A mutant,partially restored
same,rescue of activity of Arg to Ala mutants,[19],> 100 fold
same,EC50,[19]; read-out: EC50 of tyrosine kinase rescue,~5 mM
same,pKa,,approximately 7
same,rescue of kcat defect,[20],rescued this defect in kcat
same,time to observed tyrosine phosphorylation after treatment,[21],≤ 1 min
same,complementation of lost proteolytic activity,[22],complemented efficiently
c1ccc2[nH]ccc2c1 [indole],rescue of β-gly,[23],fully rescued
CN=C(N)N [methylguanidine],increase in kcat of the R127A mutant,[6],up to 100 fold
same,"rescued KM, within fold of the WT value",[1],≤ 30 fold
same,"rescued kcat, within fold of the WT value",[1],≤ 1.5 fold
same,EC50,[1]; read-out: half-maximal rescue (Kr),~10 mM
Oc1ccccc1 [phenol],effect on pyridine product formation,Y319A TbtD,substantial increase in pyridine formation
same,rescue of activity over baseline,[24],about 10 fold
same,"rescued enzyme activity, % of WT activity",[24],below 1%
c1ccncc1 [pyridine],restoration of R57G variant activity,[9],not
OC[C@@H](O)[C@@H](O)[C@H](O)[C@@H](O)CO [sorbitol],rescue of I278T CBS by chemical chaperones,I278T CBS,partially rescued
C[C@H](O)[C@H](O)[C@H]1CNc2nc(N)[nH]c(=O)c2N1 [tetrahydrobiopterin],rescue of mutant PAH by excess cofactor,[25],rescue mutant forms of PAH
C[N+](C)(C)[O-] [trimethylamine-N-oxide],extent of rescue in vivo,[16],weak
CN1[C@@H](CC(=O)c2ccccc2)CCC[C@H]1C[C@H](O)c1ccccc1 [α-lobeline],rescue of galactocerebrosidase,galactocerebrosidase,rescued
